Data on 1 molecule can be found in paper PMC3919815, “Anti-Tumor Effects of Novel 5-O-Acyl Plumbagins Based on the Inhibition of Mammalian DNA Replicative Polymerase Activity” (PLoS ONE, 2014).

What all share (test): DNA polymerase activity inhibition
What all share (assay type): biochemical
Common to all, as to conditions: 0.05 units enzyme; mean ± SD (n = 3)

In one experiment the target is T1, Human pol ε (Homo sapiens, UniProt Q07864).
T1 construct: purified by nuclear fractionation of human peripheral blood cancer cells (Molt-4); endogenous in cells; host or cells: Molt-4
T1 sequence (Q07864 whole entry): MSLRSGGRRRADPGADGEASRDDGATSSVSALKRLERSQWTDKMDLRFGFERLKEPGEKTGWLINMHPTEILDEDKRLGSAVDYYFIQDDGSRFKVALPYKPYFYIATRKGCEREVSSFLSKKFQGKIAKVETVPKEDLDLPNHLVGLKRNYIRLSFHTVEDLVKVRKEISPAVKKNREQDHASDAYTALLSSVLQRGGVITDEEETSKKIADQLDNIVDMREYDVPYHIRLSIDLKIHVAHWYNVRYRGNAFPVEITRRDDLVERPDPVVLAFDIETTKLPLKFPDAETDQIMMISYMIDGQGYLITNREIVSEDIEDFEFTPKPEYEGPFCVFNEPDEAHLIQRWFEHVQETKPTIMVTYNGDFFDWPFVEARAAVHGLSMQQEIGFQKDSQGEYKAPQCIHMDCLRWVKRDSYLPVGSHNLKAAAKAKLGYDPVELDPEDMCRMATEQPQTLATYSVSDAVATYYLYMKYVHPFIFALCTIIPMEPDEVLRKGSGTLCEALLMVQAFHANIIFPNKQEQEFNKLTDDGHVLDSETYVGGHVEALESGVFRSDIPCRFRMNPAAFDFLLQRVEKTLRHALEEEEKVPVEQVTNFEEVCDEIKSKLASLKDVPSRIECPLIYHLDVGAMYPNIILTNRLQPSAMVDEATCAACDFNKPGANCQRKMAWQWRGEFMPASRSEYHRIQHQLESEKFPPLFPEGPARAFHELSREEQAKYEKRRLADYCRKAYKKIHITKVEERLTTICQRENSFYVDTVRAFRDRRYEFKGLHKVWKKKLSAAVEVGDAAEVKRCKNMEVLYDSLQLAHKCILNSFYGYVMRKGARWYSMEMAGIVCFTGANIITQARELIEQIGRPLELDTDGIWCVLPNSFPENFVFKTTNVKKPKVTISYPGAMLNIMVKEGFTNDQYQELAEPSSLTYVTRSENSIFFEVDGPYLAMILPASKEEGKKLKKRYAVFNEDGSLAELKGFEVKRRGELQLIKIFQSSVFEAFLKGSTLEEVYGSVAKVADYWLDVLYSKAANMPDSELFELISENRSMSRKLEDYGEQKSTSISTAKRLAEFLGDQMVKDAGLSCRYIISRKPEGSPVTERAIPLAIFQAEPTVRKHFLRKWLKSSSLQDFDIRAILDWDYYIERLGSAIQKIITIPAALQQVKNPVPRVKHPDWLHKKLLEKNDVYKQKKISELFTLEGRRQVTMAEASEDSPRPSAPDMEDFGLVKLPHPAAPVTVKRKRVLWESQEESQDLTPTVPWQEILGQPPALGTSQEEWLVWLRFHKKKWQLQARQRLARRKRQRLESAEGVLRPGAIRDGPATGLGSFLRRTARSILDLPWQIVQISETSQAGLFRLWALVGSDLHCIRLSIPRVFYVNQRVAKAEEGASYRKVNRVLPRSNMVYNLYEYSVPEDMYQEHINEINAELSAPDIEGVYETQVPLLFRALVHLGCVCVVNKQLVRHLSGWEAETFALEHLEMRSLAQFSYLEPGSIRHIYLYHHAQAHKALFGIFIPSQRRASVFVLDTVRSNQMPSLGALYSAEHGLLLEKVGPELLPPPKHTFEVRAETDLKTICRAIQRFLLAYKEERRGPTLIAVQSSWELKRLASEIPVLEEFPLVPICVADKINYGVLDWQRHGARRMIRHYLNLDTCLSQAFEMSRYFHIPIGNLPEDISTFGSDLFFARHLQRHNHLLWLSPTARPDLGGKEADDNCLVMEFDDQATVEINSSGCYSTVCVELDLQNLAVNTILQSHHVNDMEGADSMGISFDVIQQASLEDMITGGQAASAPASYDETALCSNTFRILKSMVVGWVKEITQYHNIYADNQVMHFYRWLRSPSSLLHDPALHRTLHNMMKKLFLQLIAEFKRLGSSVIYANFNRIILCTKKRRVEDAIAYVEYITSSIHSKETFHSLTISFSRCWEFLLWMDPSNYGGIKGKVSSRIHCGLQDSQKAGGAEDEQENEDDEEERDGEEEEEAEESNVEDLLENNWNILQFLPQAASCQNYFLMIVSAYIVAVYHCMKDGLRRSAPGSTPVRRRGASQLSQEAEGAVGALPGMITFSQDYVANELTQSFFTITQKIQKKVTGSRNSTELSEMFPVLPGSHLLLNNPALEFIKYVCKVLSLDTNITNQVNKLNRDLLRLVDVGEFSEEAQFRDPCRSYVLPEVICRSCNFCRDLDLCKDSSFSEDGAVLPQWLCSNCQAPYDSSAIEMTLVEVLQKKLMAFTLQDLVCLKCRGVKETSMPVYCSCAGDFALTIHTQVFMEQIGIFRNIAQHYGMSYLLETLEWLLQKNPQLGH
The text has this:
(§1) Pol α was purified from calf thymus by immunoaffinity column chromatography as described by Tamai et al.. Recombinant rat pol β was purified from Escherichia coli JMpβ5 as described by Date et al.. The human pol γ catalytic gene was cloned into pFastBac. Histidine-tagged enzyme was expressed using the BACTO-BAC HT Baculovirus Expression System according to the manufacturer's instructions (Life Technologies, Frederick, MD, USA) and purified using ProBound resin (Invitrogen Japan, Tokyo Japan). Human pols δ and ε were purified by nuclear fractionation of human peripheral blood cancer cells (Molt-4) using the second subunit of pol δ and ε-conjugated affinity column chromatography, respectively. A truncated form of human pol η (residues 1–511) tagged with His6 at its C-terminal was expressed in E. coli cells and purified as described by Kusumoto et al.. A recombinant mouse pol ι tagged with His6 at its C-terminal was expressed and purified by Ni–NTA column chromatography. A truncated form of pol κ (residues 1–560) with 6× His-tags attached at the C-terminus was overexpressed in E. coli and purified as described by Ohashi et al.. Recombinant human His-pol λ was overexpressed and purified according to a method described by Shimazaki et al.. Recombinant human His-pol μ was overexpressed in E. coli BL21 and purified using Glutathione Sepharose 4B (GE Healthcare Bio-Science Corp., Piscataway, NJ, USA) column chromatography according to the method for pol λ preparation by Shimazaki et al.. Pol α from a higher plant, cauliflower, was purified from the inflorescence structure according to the methods outlined by Sakaguchi et al.. Recombinant rice (Oryza sativa L. cv. Nipponbare) pol λ tagged with His6 at the C-terminus was expressed in E. coli and purified as described by Uchiyama et al.. Calf TdT, Taq pol, T4 pol, T7 RNA polymerase, and T4 polynucleotide kinase were purchased from Takara Bio Inc. (Kyoto, Japan). The Klenow fragment of pol I from E. coli was purchased from Worthington Biochemical Corp. (Freehold, NJ, USA). Bovine pancreas deoxyribonuclease I was obtained from Stratagene Cloning Systems (La Jolla, CA, USA).
(§2) The reaction mixtures for calf pol α, rat pol β, plant pol α, and prokaryotic pols have been described previously, [35]; those for pol γ as well as pols δ and ε were previously described by Umeda et al. and Ogawa et al., respectively. Those for pols η, ι, and κ were the same as for pol α, and those for pols λ and μ were the same as for pol β. For the pol reactions, poly(dA)/oligo(dT)18 (A/T, 2/1) and dTTP were used as the DNA template-primer substrate and nucleotide (dNTP; 2′-deoxynucleoside-5′-triphosphate) substrate, respectively. For the TdT reactions, oligo(dT)18 (3′-OH) and dTTP were used as the DNA primer substrate and nucleotide substrate, respectively.
(§3) The chemically synthesized 5-O-acyl plumbagins (2a–j) were dissolved in distilled dimethyl sulfoxide (DMSO) to various concentrations and sonicated for 30 s. Subsequently, 4 µL aliquots were mixed with 16 µL of each enzyme (0.05 units) in 50 mM Tris-HCl at pH 7.5, containing 1 mM dithiothreitol, 50% glycerol (by vol), and 0.1 mM ethylenediaminetetraacetic acid and held at 0°C for 10 min. These inhibitor-enzyme mixtures in 8 µL volumes were next added to 16 µL of enzyme standard reaction mixture and incubated at 37°C for 60 min, except for Taq pol, which was incubated at 74°C for 60 min. Activity without inhibitor was considered 100%, and the relative activity was determined for each inhibitor concentration. One unit of pol activity was defined as the amount of each enzyme that catalyzed the incorporation of 1 nmol dTTP into synthetic DNA template primers in 60 min, at 37°C, and under standard reaction conditions, [35].

The target of a further experiment is T2, Human pol λ (Homo sapiens, UniProt Q9UGP5).
T2 construct: His tag; made in house
T2 sequence (Q9UGP5 1-575): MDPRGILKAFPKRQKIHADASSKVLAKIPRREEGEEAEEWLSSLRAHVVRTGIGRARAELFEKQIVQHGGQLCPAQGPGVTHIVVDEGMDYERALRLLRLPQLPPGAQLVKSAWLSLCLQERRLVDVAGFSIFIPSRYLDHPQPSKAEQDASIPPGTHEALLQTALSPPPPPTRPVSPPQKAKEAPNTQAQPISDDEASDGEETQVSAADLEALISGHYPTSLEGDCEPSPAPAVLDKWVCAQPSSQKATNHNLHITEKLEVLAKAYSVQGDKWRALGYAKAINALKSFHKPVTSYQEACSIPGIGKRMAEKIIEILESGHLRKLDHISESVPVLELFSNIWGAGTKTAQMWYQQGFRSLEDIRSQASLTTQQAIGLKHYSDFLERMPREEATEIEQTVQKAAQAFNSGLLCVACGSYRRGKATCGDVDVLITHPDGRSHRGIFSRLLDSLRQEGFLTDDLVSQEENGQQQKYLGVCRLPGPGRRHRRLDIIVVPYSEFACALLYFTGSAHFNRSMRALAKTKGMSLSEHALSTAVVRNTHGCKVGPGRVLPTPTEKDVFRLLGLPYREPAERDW
Excerpt: as §1, §2, §3

For another experiment, the target named is T3, Human pol η (Homo sapiens, UniProt Q9Y253).
T3 construct: A truncated form of human pol η (residues 1–511) tagged with His6 at its C-terminal; His6 (C); made in house; host or cells: E. coli
T3 sequence (Q9Y253 1-511): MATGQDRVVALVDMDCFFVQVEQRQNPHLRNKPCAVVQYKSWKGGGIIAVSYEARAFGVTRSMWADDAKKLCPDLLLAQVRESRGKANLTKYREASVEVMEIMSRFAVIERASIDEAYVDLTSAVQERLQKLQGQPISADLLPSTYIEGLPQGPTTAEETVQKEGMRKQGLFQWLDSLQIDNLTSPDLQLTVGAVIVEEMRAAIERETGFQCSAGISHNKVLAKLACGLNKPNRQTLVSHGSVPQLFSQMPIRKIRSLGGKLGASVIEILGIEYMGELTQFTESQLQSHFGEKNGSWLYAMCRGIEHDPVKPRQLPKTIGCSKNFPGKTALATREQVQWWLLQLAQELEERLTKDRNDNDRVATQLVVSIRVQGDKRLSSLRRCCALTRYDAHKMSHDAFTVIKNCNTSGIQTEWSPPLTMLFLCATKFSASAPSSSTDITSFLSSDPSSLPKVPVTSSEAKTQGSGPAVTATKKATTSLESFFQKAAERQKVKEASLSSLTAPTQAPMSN
Excerpt: as §1, §2, §3

The next experiment deals with T4, Human pol κ (Homo sapiens, UniProt Q9UBT6).
T4 construct: A truncated form of pol κ (residues 1–560) with 6× His-tags attached at the C-terminus; 6× His (C); made in house; host or cells: E. coli
T4 sequence (Q9UBT6 1-560): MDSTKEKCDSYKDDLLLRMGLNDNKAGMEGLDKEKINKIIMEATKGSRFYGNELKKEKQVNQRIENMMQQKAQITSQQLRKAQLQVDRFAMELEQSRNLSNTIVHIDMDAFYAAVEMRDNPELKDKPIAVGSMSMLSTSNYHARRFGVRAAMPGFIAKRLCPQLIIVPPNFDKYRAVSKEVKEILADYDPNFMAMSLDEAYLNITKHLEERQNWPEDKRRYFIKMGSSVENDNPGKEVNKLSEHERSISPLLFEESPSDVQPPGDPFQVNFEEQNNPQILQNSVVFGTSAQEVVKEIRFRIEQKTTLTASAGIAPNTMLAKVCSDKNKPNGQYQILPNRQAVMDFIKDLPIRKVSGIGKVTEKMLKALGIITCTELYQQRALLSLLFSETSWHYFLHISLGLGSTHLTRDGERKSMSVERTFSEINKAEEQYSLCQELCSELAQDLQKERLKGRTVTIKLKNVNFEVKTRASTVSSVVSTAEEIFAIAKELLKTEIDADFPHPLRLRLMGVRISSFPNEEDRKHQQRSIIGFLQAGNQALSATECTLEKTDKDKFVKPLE
Excerpt: as §1, §2, §3

In another experiment the target is T5, Human pol μ (Homo sapiens, UniProt Q9NP87).
T5 construct: His tag; made in house; host or cells: E. coli BL21
T5 sequence (Q9NP87 whole entry): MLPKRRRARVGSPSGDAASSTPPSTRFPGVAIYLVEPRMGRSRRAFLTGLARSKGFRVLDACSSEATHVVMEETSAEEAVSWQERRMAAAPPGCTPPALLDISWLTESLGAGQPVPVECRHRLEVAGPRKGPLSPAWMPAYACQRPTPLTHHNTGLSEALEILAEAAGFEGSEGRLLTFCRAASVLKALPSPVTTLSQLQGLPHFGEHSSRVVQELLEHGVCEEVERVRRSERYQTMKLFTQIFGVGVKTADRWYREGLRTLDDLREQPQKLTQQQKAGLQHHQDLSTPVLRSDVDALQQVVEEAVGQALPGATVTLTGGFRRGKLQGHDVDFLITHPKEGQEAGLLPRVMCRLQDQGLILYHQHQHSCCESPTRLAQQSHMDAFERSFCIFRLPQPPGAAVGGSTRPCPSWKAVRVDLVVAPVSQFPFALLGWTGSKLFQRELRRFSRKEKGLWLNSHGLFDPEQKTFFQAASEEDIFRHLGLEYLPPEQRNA
Excerpt: as §1, §2, §3

With `CCCCCCCC/C=C\CCCCCCCC(=O)Oc1cccc2c1C(=O)C=C(C)C2=O` [2f, 5-O-oleoyl-2-methyl-1,4-naphthoquinone], the IC50 came to 4.9 ± 0.4 µM against Human pol ε; 9.2 ± 0.43 µM against Human pol λ; 7.9 ± 0.42 µM against Human pol η; 7.6 ± 0.41 µM against Human pol κ; 9.5 ± 0.48 µM against Human pol μ.

A word on the IC50: it is the concentration at which inhibition is half-maximal. The low end stands for greater potency in that assay, the high end for weaker potency in that assay.
